Laboratory results published in paper PMC11783601, “Analogue-Sensitive Inhibition of Histone Demethylases Uncovers Member-Specific Function in Ribosomal Protein Synthesis” (Journal of the American Chemical Society, 2025).
Entries after “also recorded” stand apart in the source; their conditions may differ.

Legend:
Assay in all cases: H3K9me3 Western blot of nuclear extracts of transfected HEK293T cells
Type in all cases: cell-based
full-length KDM4E-F186A = biological target: T1, full-length KDM4E-F186A (Homo sapiens, UniProt B2RXH2, F186A); conditions: 25-200 µM
T1 construct: we generated the full-length as mutants of the remaining KDM4s; host or cells: HEK293T
T1 sequence (B2RXH2 whole entry F186A): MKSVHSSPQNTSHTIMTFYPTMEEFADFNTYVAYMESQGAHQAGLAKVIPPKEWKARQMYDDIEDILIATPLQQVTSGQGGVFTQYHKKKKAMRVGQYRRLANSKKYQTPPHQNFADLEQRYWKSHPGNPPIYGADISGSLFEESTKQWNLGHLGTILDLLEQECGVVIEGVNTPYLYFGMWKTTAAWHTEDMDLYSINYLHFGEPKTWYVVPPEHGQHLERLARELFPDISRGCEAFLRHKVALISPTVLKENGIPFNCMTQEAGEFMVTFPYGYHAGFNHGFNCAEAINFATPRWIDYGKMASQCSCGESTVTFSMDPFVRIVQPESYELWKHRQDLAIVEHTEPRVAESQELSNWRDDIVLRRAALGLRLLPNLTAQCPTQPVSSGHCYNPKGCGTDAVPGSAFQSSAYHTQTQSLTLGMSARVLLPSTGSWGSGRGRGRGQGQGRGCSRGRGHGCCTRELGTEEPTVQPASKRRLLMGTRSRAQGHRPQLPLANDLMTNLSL
Description: (§1) KDM4B and C are structurally homologous to KDM4A, and KDM4D and E have a catalytic pocket near-identical to that of KDM4A but lack the Tudor and PHD domains known to bind trimethylated lysine in histones (Figure 1B).[11] HEK293T cells were transfected with full-length wild type KDM4B-E or their respective mutants. Western blot analysis of nuclear preparations using the H3K9me3 antibody confirmed all of the proteins to be catalytically active (Figures 4G–N and S32–S35).
(§2) KDM4A mammalian expression plasmid in CMV vector was purchased from Addgene (plasmid #24180). KDM4B mammalian expression plasmid in CMV vector was purchased from Addgene (plasmid #24181). KDM4C mammalian expression plasmid in CMV vector was purchased from Addgene (plasmid #24214). KDM4D mammalian expression plasmid in pReciever vector was purchased from Genecopoia (EX-Z0917-M06.) KDME mammalian expression plasmid in pRP-EXP was designed from Vector Builder. The KDM4A-F185A, KDM4B-F186A, KDM4C -F187A, KDM4D-F189A, and KDM4E F186A mutants were generated using Quikchange Lightening Mutagenesis Kit (Agilent) according to manufacturer’s protocol and confirmed by Sanger […]
(§3) HEK293T/17 cells (ATCC) were grown in Delbucco’s Modified Eagle Medium (DMEM) (Corning) with 10% FBS at 37 °C (Corning), 5% CO2, and 95% relative humidity in a 6-well cell culture plate. When cells reached 90% confluency, 3 µg of plasmid and 6 µg lipofectamine 2000 (Invitrogen: 11668019) were incubated with 100 µL OptiMem. After 5 minutes the plasmid and lipofectamine were combined and incubated at room temperature for 20 minutes and added to the cell culture disk. Cells were returned to the incubator to grow for 4-6 hours. This was followed by treatment of compound treatment (n-octyl IOX121,22 or a specific NOG ester) at indicated concentrations and further culture for specified time. The media was removed, and cells were washed with ice cold PBS (Corning), then trypsinized with TrpLE Express (Gibco). The trypsinization reaction was quenched with DMEM 10% FBS and cells were pelleted then washed once with ice cold PBS. The nuclear extracts were generated by first resuspending the cell pellets in 700 µL nuclear isolation buffer (15 mM Tris pH 7.5, 60 mM KCl, 15 mM NaCl, 5 mM MgCl2, 1 mM CaCl2, 1mm DTT, 2 mM Na3Van, 250 mM sucrose, 1X Pierce protease inhibitor (Thermo Fisher #PIA32955), 1 mM PMSF, 0.3% NP40 diluted to volume with MilliQ H2O) and incubated on ice for 5 minutes.23 The samples were then pelleted by centrifugation at 2000 rcf for 5 minutes.
(§4) The supernatant was removed, and the pelleted nuclei were resuspended in 200 µL Pierce IP lysis buffer (Thermo Fisher #87787) containing 1X Pierce protease inhibitor and left on ice for 5 minutes. The nuclei were then sonicated at 100% amp for 5 minutes (pulsed 1 minute “on”, 20 seconds “rest”) using a Qsonica-Q700, cuphorn sonicator. The samples were pelleted once again at 2000 rcf for 5 minutes and the supernatant containing the nuclear extracts were collected. MgCl2 (1M) solution was added to each sample give a final concentration of 6mM. […]
(§5) Prism with the corresponding bars representing the mean and standard deviation of the population.
(§6) For the time dependent imaging, cells containing the transfected KDM4A mutant were identified by their HA signal. These cells were used to create a selection which was then imposed onto the respective H3K9me3 or BrdU images. The mean signal was then measured for H3K9me3 or BrdU only within the cells expressing the KDM4A mutant. To compare changes in H3K9me3 or BrdU between trials, the quantification values were normalized to the mean signal at t=0. The normalized, mean signal and error for H3K9me3 or BrdU were then plotted in GraphPad Prism.
(§7) 21. General protocol for Western blotting
(§8) Assay samples were mixed with appropriate volume of 4X Laemmli Dye (Bio-Rad), heated at 95 °C for 5 minutes and loaded onto 4–12% Criterion™ XT Bis-Tris protein gels (Bio-Rad #3450123) or in-house prepared SDS-polyacrylamide gel and subjected to electrophoresis […]

full-length KDM4B-F186A = biological target: T2, full-length KDM4B-F186A (Homo sapiens, UniProt O94953, F186A); conditions: for inhibition of KDM4B-F186A (asKDM4B) H3K9me3 demethylation: 10 μM concentration; for inhibition of KDM4B-F186A H3K9me3 demethylation, dose-dependent: 10, 20 µM
T2 construct: we generated the full-length as mutants of the remaining KDM4s; host or cells: HEK293T
T2 sequence (O94953 1-1096 F186A): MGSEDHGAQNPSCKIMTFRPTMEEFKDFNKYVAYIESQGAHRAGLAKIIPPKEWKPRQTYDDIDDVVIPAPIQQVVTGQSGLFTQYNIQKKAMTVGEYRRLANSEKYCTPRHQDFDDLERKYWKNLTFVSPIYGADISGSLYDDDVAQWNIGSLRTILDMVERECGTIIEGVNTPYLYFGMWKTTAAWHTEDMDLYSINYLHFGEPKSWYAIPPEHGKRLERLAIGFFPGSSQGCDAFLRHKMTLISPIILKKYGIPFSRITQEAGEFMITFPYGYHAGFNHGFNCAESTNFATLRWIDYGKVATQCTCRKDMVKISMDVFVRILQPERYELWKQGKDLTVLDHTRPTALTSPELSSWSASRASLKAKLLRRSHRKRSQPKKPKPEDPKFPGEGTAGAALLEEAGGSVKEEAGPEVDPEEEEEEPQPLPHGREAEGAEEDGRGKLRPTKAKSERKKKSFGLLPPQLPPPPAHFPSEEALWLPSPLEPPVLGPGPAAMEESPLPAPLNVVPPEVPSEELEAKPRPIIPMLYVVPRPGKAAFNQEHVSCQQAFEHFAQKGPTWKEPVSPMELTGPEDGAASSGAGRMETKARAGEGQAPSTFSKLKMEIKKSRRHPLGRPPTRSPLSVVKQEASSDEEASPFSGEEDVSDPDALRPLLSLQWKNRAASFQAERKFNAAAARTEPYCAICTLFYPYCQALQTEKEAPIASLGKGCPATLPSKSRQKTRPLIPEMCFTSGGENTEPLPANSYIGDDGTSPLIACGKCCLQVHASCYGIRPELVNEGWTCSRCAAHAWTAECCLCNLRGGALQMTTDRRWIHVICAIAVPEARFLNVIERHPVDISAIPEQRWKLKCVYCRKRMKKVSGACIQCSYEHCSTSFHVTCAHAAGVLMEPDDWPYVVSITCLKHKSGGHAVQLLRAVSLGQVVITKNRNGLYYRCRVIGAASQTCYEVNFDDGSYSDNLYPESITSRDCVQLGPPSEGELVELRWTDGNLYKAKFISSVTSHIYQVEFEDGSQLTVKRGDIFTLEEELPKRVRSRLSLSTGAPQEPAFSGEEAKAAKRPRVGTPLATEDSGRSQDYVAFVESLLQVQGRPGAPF
Description: as §1, §2, §3, §4, §5, §6, §7, §8

full-length KDM4D-F189A = biological target: T3, full-length KDM4D-F189A (Homo sapiens, UniProt Q6B0I6, F189A); conditions: 25-200 µM
T3 construct: we generated the full-length as mutants of the remaining KDM4s; host or cells: HEK293T
T3 sequence (Q6B0I6 whole entry F189A): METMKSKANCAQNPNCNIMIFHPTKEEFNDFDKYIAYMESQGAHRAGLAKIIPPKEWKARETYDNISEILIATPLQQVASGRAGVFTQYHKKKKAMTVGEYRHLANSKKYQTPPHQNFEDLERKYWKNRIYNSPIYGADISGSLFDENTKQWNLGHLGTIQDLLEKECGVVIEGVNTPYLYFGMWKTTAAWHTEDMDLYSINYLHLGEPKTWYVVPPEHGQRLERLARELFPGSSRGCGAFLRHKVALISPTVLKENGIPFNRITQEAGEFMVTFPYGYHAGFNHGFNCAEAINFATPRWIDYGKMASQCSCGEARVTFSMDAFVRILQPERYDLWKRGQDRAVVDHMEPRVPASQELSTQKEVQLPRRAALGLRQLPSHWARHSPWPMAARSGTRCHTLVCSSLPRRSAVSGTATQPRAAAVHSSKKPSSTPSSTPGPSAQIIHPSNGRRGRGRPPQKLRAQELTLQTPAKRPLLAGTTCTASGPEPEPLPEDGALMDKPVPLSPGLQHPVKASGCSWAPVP
Description: as §1, §2, §3, §4, §5, §6, §7, §8

full-length KDM4C-F187A = biological target: T4, full-length KDM4C-F187A (Homo sapiens, UniProt Q9H3R0, F187A); conditions: 25-200 µM
T4 construct: we generated the full-length as mutants of the remaining KDM4s; host or cells: HEK293T
T4 sequence (Q9H3R0 whole entry F187A): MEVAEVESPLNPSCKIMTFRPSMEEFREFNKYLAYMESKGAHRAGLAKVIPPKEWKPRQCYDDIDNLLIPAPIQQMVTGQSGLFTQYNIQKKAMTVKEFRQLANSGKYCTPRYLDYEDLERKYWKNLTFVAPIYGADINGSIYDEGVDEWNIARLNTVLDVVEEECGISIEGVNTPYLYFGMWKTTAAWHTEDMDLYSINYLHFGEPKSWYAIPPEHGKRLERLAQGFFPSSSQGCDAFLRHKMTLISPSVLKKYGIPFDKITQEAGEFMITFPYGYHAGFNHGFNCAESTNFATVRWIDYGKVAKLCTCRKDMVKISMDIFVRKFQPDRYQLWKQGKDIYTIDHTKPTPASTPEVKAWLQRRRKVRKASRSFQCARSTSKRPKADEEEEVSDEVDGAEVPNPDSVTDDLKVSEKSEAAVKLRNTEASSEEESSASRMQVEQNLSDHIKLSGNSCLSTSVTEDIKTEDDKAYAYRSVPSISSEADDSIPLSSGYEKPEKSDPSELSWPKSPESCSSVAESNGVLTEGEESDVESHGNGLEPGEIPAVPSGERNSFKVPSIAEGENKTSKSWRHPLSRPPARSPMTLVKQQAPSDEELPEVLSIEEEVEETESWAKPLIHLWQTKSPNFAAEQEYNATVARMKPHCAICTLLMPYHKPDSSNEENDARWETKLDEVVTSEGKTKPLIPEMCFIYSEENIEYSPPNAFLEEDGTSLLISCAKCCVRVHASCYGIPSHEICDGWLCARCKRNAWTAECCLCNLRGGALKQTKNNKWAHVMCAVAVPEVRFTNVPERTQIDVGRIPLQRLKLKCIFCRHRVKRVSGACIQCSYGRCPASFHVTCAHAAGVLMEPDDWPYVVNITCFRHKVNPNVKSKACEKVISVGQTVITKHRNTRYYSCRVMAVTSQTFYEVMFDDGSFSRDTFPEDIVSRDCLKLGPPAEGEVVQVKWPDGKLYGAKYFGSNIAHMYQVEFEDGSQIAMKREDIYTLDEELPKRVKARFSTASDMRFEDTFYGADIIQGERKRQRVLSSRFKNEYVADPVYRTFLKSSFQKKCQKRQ
Description: as §1, §2, §3, §4, §5, §6, §7, §8

SMILES | inhibition of KDM4E-F186A H3K9me3 demethylation (full-length KDM4E-F186A) | inhibition of KDM4B-F186A (asKDM4B) H3K9me3 demethylation (full-length KDM4B-F186A) | inhibition of KDM4B-F186A H3K9me3 demethylation, dose-dependent (full-length KDM4B-F186A) | inhibition of KDM4D-F189A H3K9me3 demethylation (full-length KDM4D-F189A) | inhibition of KDM4C-F187A H3K9me3 demethylation (full-length KDM4C-F187A)
CCCCCCCCOC(=O)C(=O)NC(CC(C)C)C(=O)O [6A, L-Leu octyl-ester NOG] | Dose-dependent inhibition; also recorded: significantly reduced | robust inhibition | Dose-dependent inhibition; also recorded: significantly reduced | Dose-dependent inhibition; also recorded: significantly reduced | Dose-dependent inhibition; also recorded: significantly reduced
CC(C)CC(NC(=O)C(=O)OCc1cccc(C(F)(F)F)c1)C(=O)O [6B, L-Leu TFMB-ester NOG] | significantly reduced | robust inhibition | Dose-dependent inhibition; also recorded: significantly reduced | Inhibition; also recorded: significantly reduced | significantly reduced
